# “And” between values parts separate entries of the source, which are not always exact repeats. Identical values can stand only once. Records with an inconclusive call do not appear.
# Tested on: BDF1 mice, colon carcinoma 38 sc, T/C %
# Assay: NCI In Vivo Anticancer Drug Screen. Data for tumor model Colon Carcinoma 38 (subcutaneous) in B6D2F1 (BDF1) mice
# Procedure, shortened: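 Compound antitumor activity was assessed in mice carrying transplantable tumors. Survival or tumor size was recorded, and each value is the treated-group measurement divided by that of the vehicle-treated control group.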
# [1] = endpoint: median tumor weight (est.), dose: 25.0 mg/kg/injection, schedule: Q07DX002 (ip), vehicle: saline, higher = larger tumour
# [2] = endpoint: median tumor weight (est.), dose: 50.0 mg/kg/injection, schedule: Q07DX002 (ip), vehicle: saline, higher = larger tumour
structure (smiles),measurement,setting,value
OCCN1CCN(CC/C=C2/c3ccccc3Sc3ccc(C(F)(F)F)cc32)CC1,T/C,"endpoint: median tumor weight (est.), dose: 1.56 mg/kg/injection, schedule: Q07DX002 (ip), vehicle: saline, higher = larger tumour",110 % of control
same,T/C,"endpoint: median tumor weight (est.), dose: 3.12 mg/kg/injection, schedule: Q07DX002 (ip), vehicle: saline, higher = larger tumour",121 % of control
same,T/C,"endpoint: median tumor weight (est.), dose: 6.25 mg/kg/injection, schedule: Q07DX002 (ip), vehicle: saline, higher = larger tumour",100 % of control
same,T/C,"endpoint: median tumor weight (est.), dose: 12.5 mg/kg/injection, schedule: Q07DX002 (ip), vehicle: saline, higher = larger tumour",95 % of control
same,T/C,[1],120 % of control
same,T/C,[2],68 % of control
O=NN(CCCl)C(=O)NC1CCCCC1,T/C,"endpoint: median tumor weight (est.), dose: 6.25 mg/kg/injection, schedule: Q07DX002 (ip), vehicle: Klucel (hydroxypropylcellulose) (HPC), higher = larger tumour",91 % of control
same,T/C,"endpoint: median tumor weight (est.), dose: 10.0 mg/kg/injection, schedule: Q07DX003 (ip), vehicle: Klucel (hydroxypropylcellulose) (HPC), higher = larger tumour",71 % of control
same,T/C,"endpoint: median tumor weight (est.), dose: 10.0 mg/kg/injection, schedule: Q07DX003 (ip), vehicle: carboxymethylcellulose (CMC), higher = larger tumour",53 % of control
same,T/C,"endpoint: median tumor weight (est.), dose: 12.5 mg/kg/injection, schedule: Q07DX002 (ip), vehicle: Klucel (hydroxypropylcellulose) (HPC), higher = larger tumour",64 % of control
same,T/C,"endpoint: median tumor weight (est.), dose: 20.0 mg/kg/injection, schedule: Q07DX003 (ip), vehicle: Klucel (hydroxypropylcellulose) (HPC), higher = larger tumour",72 % of control
same,T/C,"endpoint: median tumor weight (est.), dose: 20.0 mg/kg/injection, schedule: Q07DX003 (ip), vehicle: carboxymethylcellulose (CMC), higher = larger tumour",47 % of control
same,T/C,"endpoint: median tumor weight (est.), dose: 25.0 mg/kg/injection, schedule: Q07DX002 (ip), vehicle: Klucel (hydroxypropylcellulose) (HPC), higher = larger tumour",36 % of control
same,T/C,"endpoint: median tumor weight (est.), dose: 40.0 mg/kg/injection, schedule: Q07DX003 (ip), vehicle: Klucel (hydroxypropylcellulose) (HPC), higher = larger tumour",44 % of control
same,T/C,"endpoint: median tumor weight (est.), dose: 40.0 mg/kg/injection, schedule: Q07DX003 (ip), vehicle: carboxymethylcellulose (CMC), higher = larger tumour",24 % of control
same,T/C,"endpoint: median tumor weight (est.), dose: 80.0 mg/kg/injection, schedule: Q07DX003 (ip), vehicle: Klucel (hydroxypropylcellulose) (HPC), higher = larger tumour",33 % of control
NC(=O)c1[nH]nc(C2OC(CO)C(O)C2O)c1O (configuration not stated),T/C,"endpoint: median survival time, dose: 0.75 mg/kg/injection, schedule: Q04DX004 (ip), vehicle: saline, higher = longer survival",77 % of control and 79 % of control
same,T/C,"endpoint: median survival time, dose: 1.5 mg/kg/injection, schedule: Q04DX004 (ip), vehicle: saline, higher = longer survival",90 % of control and 105 % of control
same,T/C,"endpoint: median survival time, dose: 3.0 mg/kg/injection, schedule: Q04DX004 (ip), vehicle: saline, higher = longer survival",63 % of control and 65 % of control
same,T/C,"endpoint: median survival time, dose: 6.0 mg/kg/injection, schedule: Q04DX004 (ip), vehicle: saline, higher = longer survival",59 % of control
same,T/C,"endpoint: median survival time, dose: 12.0 mg/kg/injection, schedule: Q04DX004 (ip), vehicle: saline, higher = longer survival",43 % of control
same,T/C,"endpoint: median tumor weight (est.), dose: 0.31 mg/kg/injection, schedule: Q07DX003 (ip), vehicle: saline, higher = larger tumour",117 % of control
same,T/C,"endpoint: median tumor weight (est.), dose: 0.62 mg/kg/injection, schedule: Q07DX003 (ip), vehicle: saline, higher = larger tumour",90 % of control
same,T/C,"endpoint: median tumor weight (est.), dose: 1.25 mg/kg/injection, schedule: Q07DX003 (ip), vehicle: saline, higher = larger tumour",97 % of control
same,T/C,"endpoint: median tumor weight (est.), dose: 4.32 mg/kg/injection, schedule: Q04DX004 (ip), vehicle: saline, higher = larger tumour",81 % of control
same,T/C,"endpoint: median tumor weight (est.), dose: 5.0 mg/kg/injection, schedule: Q07DX002 (ip), vehicle: saline, higher = larger tumour",100 % of control
same,T/C,"endpoint: median tumor weight (est.), dose: 5.0 mg/kg/injection, schedule: Q07DX003 (ip), vehicle: saline, higher = larger tumour",93 % of control
same,T/C,"endpoint: median tumor weight (est.), dose: 7.2 mg/kg/injection, schedule: Q04DX004 (ip), vehicle: saline, higher = larger tumour",61 % of control
same,T/C,"endpoint: median tumor weight (est.), dose: 10.0 mg/kg/injection, schedule: Q07DX002 (ip), vehicle: saline, higher = larger tumour",86 % of control
same,T/C,"endpoint: median tumor weight (est.), dose: 10.0 mg/kg/injection, schedule: Q07DX003 (ip), vehicle: saline, higher = larger tumour",82 % of control
same,T/C,"endpoint: median tumor weight (est.), dose: 12.0 mg/kg/injection, schedule: Q04DX004 (ip), vehicle: saline, higher = larger tumour",17 % of control
O=[N+]([O-])O.[Ga],T/C,"endpoint: median tumor weight (est.), dose: 12.5 mg/kg/injection, schedule: Q07DX003 (ip), vehicle: saline, higher = larger tumour",122 % of control
same,T/C,[1],159 % of control
same,T/C,"endpoint: median tumor weight (est.), dose: 25.0 mg/kg/injection, schedule: Q07DX003 (ip), vehicle: saline, higher = larger tumour",121 % of control
same,T/C,[2],78 % of control
same,T/C,"endpoint: median tumor weight (est.), dose: 100.0 mg/kg/injection, schedule: Q07DX002 (ip), vehicle: saline, higher = larger tumour",81 % of control
same,T/C,"endpoint: median tumor weight (est.), dose: 100.0 mg/kg/injection, schedule: Q07DX003 (ip), vehicle: saline, higher = larger tumour",44 % of control
NC(=S)N/N=C/c1ccc(OC(=O)COc2ccccc2)cn1,T/C,"endpoint: median tumor weight (est.), dose: 25.0 mg/kg/injection, schedule: Q07DX002 (ip), vehicle: saline with Tween-80, higher = larger tumour",88 % of control
same,T/C,"endpoint: median tumor weight (est.), dose: 50.0 mg/kg/injection, schedule: Q07DX002 (ip), vehicle: saline with Tween-80, higher = larger tumour",88 % of control
same,T/C,"endpoint: median tumor weight (est.), dose: 100.0 mg/kg/injection, schedule: Q07DX002 (ip), vehicle: saline with Tween-80, higher = larger tumour",55 % of control
same,T/C,"endpoint: median tumor weight (est.), dose: 200.0 mg/kg/injection, schedule: Q07DX002 (ip), vehicle: saline with Tween-80, higher = larger tumour",72 % of control
same,T/C,"endpoint: median tumor weight (est.), dose: 400.0 mg/kg/injection, schedule: Q07DX002 (ip), vehicle: saline with Tween-80, higher = larger tumour",57 % of control

# Reference: PubChem BioAssay AID212 (DTP/NCI, 2004)
